Laboratory results taken from patent US10130590B2, “Methods of treating cancer with atovaquone-related compounds” (DANA-FARBER CANCER INSTITUTE, INC., priority 2013, dated 2018).

Tests used:
Format in all cases: cell-based
[1] = system: JAK family members (TYK2, JAK2); assay: JAK auto-phosphorylation in cells (immunoprecipitation, Western blot); details: U266 15 μM 1 hour (TYK2); HEL 20 μM 6 hours (JAK2)
Procedure: Western blotting was performed as previously described (Battle T E, Arbiser J, & Frank D A (2005) The natural product honokiol induces caspase dependent apoptosis in B-cell chronic lymphocytic leukemia (B-CLL) cells. Blood 106(2):690-697). Antibodies to phospho-MAPK (9101), total MAPK (9102), phospho-Y705 STAT3 (9131), phospho-S6 (2215), total S6 (2217), phospho-4E-BP1 (9451), total 4E-BP1 (9644), total RSK (9355), phospho-S6K (9234, 85 used at 1:5000), total S6K (2708), phospho-eIF2α (9721, used at 1:1000), total eIF2α (5324), ATF4 (11815, used at 1:1000), PDGFRβ (3169), IGF1Rβ (9750), EGFR (2232), and HER2 (2242) were from Cell Signaling Technology. Phospho-RSK antibody was from R&D (AF889). Antibodies to total STAT3 (sc-482) and gp130 (sc-656, used at 1:1000) were from Santa Cruz Biotechnology. […] Cell viability was measured as ATP-dependent luminescence by Cell Titer Glo (Promega).
To understand how atovaquone inhibits STAT3 phosphorylation, the possibility that atovaquone decreases the kinase activity of JAKs, which are responsible for STAT3 activation in the systems previously tested was considered. To assess kinase activity, the extent of kinase auto-phosphorylation, which provides a cellular readout of kinase activity, was first analyzed. […] Due to technical limitations, tyrosine phosphorylation of other JAK family members was not detected in U266 cells. […]

[2] = system: STAT3; assay: STAT3-luc reporter cells, IL-6 stimulated luciferase
Procedure: Western blotting was performed as previously described (Battle T E, Arbiser J, & Frank D A (2005) The natural product honokiol induces caspase dependent apoptosis in B-cell chronic lymphocytic leukemia (B-CLL) cells. Blood 106(2):690-697). Antibodies to phospho-MAPK (9101), total MAPK (9102), phospho-Y705 STAT3 (9131), phospho-S6 (2215), total S6 (2217), phospho-4E-BP1 (9451), total 4E-BP1 (9644), total RSK (9355), phospho-S6K (9234, 85 used at 1:5000), total S6K (2708), phospho-eIF2α (9721, used at 1:1000), total eIF2α (5324), ATF4 (11815, used at 1:1000), PDGFRβ (3169), IGF1Rβ (9750), EGFR (2232), and HER2 (2242) were from Cell Signaling Technology. Phospho-RSK antibody was from R&D (AF889). Antibodies to total STAT3 (sc-482) and gp130 (sc-656, used at 1:1000) were from Santa Cruz Biotechnology. Phospho-S727 STAT3 antibody was described previously (229). REDD1 antibody was from Proteintech (10638-1-AP, used at 1:1000). Antibody recognizing full-length and cleaved ATF6 was from Abcam (ab122897, used at 1:1000). Antibodies to tubulin (T5168) and beta actin (A5316) were from Sigma. All antibodies were used at 1:10000 dilution for western blot unless otherwise noted. For immunoprecipitations, cells were lysed in 500 μl lysis buffer (0.5% NP-40, 150 mM NaCl, 50 mM Tris pH 7.5, with protease and phosphatase inhibitors freshly added at 1:100 [Pierce, PI78443]) on ice for 15 minutes, then centrifuged for 10 minutes at 14,000 RPM and 4° C. The supernatant was transferred to a new tube and incubated with 10 μl JAK2 antibody (Santa Cruz sc-278) or a mix of two TYK2 antibodies, 10 μl of each (Santa Cruz sc-5271 and Cell Signaling Technology 9312). Immunoprecipitation was performed overnight at 4° C. with rotation. The next day, 75 μl of protein A/G beads (Santa Cruz sc-2003) were washed twice in lysis buffer, then incubated with immunoprecipitates overnight as before. The next day, the beads were spun down (1 min. at 7,500 RPM and 4° C.) and washed 3 times with 650 μl lysis buffer for 10 minutes at 4° C. with rotation, then boiled in 50 μl sample buffer+10% β-mercaptoethanol. For Western blot, 20 μl were loaded per lane. For detection of phospho-tyrosine, a mixture of two pan-phospho-tyrosine antibodies (Cell Signaling Technology 9411 and 9416, 1:1000 of each) was used. Antibody to phospho-Y1007/1008 JAK2 was from Cell Signaling 86 Technology (3771, used at 1:1000). Antibody to phospho-Y570 JAK2 was from Millipore (09-241, used at 1:1000). Luminometric Assays Luciferase reporter cell lines were described previously (186). Firefly luciferase values were normalized by concurrent cell viability. Cell viability was measured as ATP-dependent luminescence by Cell Titer Glo (Promega).
To determine if atovaquone inhibits STAT3, it was tested in a cell-based reporter system of STAT3 transcriptional activity (Nelson E A, et al. (2008) Nifuroxazide inhibits survival of multiple myeloma cells by directly inhibiting STAT3. Blood 112(13):5095-5102). These cells lack basal STAT3 activation; upon IL-6 treatment, STAT3 becomes activated and drives transcription of a STAT3-dependent luciferase reporter gene. […] Activity of firefly luciferase was measured and normalized by cell viability (Cell Titer Glo). […]
STAT3-luc reporter cells were pre-treated with atovaquone, buparvaquone or TDBHN (concentration 10, 20, 30, or 40 μM) for 1 hour, then stimulated with IL-6 (10 ng/ml) for 5 hours. The activity of firefly luciferase was measured and normalized by cell viability (Cell Titer Glo).

[3] = system: K562 and AML2 cells; assay: Annexin V/PI and cell cycle analysis, K562 and AML2; details: K562 20 μM, AML2 15 μM, 48 hours
Procedure: Annexin V/PI staining was performed using Annexin V:FITC Apoptosis Detection Kit I (BD Biosciences). Staining for cell cycle analysis was performed as previously described (267). Staining for cell-surface receptors was performed in 50 μl PBS+2% FBS with 2 μl antibody to IL6R (BioLegend #352803) or 5 μl antibody to gp130 (BD Biosciences #555757) for 20 minutes on ice in the dark. Cells were washed twice, then resuspended in 300 μl of the same buffer. Samples were analyzed on a BD FACSCanto II machine. Transfection and siRNA Cells were reverse-transfected using Lipofectamine RNAiMAX (Invitrogen); the culture medium was changed 24 hours later. Control siRNA (D-001210-02) and REDD1 siRNA (M-010855-01) were from Thermo Scientific Dharmacon.
K562 and AML2 cells treated with atovaquone (20 and 15 μM, respectively) for 48 hours. […] Therefore, it was hypothesized that atovaquone kills cancer cells through STAT3-related and STAT3-independent mechanisms. Accordingly, the hypothesis that atovaquone inhibited another common pathway in cancer pathogenesis was considered. In particular, the mTOR pathway, which is known to be involved in cancer cell growth and survival, was investigated.

## O=C1C(O)=C([C@H]2CC[C@H](c3ccc(Cl)cc3)CC2)C(=O)c2ccccc21 [atovaquone, trans-2-[4-(4-chlorophenyl)cyclohexyl]-3-hydroxy-1,4-naphthalenedione]
[1]
  auto-phosphorylation of JAK family members in cells: inhibited the auto-phosphorylation of JAK family members
[2]; 10, 20, 30, or 40 μM for 1 hour, then IL-6 (10 ng/ml) 5 hours, relative to controls
  STAT-3 reporter gene expression: inhibited STAT-3 reporter gene expression
[2]; pre-treated 1 hour, then IL-6 (10 ng/ml) 5 hr, normalized by cell viability
  luciferase induction by IL-6 (STAT3 transcriptional activity): dose-dependent inhibition of luciferase induction by IL-6
[2]; reporter systems
  effect on STAT3 activity compared with STAT1, STAT5 and NF-κB: much greater
[3]
  mode of loss of viability: apoptosis and cell cycle arrest
